Measured values taken from PMC3242417 (Bioorganic & medicinal chemistry letters, 2011).
Where two headings read alike, the source gives them in different places.

Experiments:
[1] = tested on: four different cell lines
[2] = tested on: VERO cells
[3] = tested on: HCV replicon; experiment: microbe, parasite or virus in culture; type: cell-based; details: for EC50: read-out: Anti-HCV EC50; for EC90: read-out: Anti-HCV EC90
[4] = tested on: HIV-1; experiment: microbe, parasite or virus in culture; type: cell-based; details: for EC50: read-out: Anti-HIV-1 EC50
[5] = tested on: HepG2 cells; experiment: Toxicity to HepG2 cells; type: cell-based; details: data not shown
[6] = tested on: CEM cells
[7] = tested on: wild-type HBV; type: cell-based; details: in vitro
[8] = tested on: PBM cells
[9] = in vitro; details: human
[10] = in vitro
[11] = in vitro; details: human; remark: listed apart in the source
[12] = tested on: Huh-7 cells; experiment: Cellular pharmacology: intracellular metabolites in Huh-7 cells by LC-MS/MS; type: in vitro ADME; details: 50 μM, 37°C, 4 h
[13] = Human immunodeficiency virus 1, read-out: Anti-HIV-1 EC90

Compound | EC90 ([3]; Hepatitis C virus, Huh-7, 96 h) | IC50 [9] | IC50 [10] | EC90 [4, 13] | CC50 at 96 h [11] | other results
4-amino-7-iodo-1-(2-deoxy-2-fluoro-2-C-methyl-α-D-ribofuranosyl)-1H-pyrrolo[2,3-d]pyrimidine [Compound 4e] | – | – | – | – | – | toxicity (in words) [1]: toxicity; IC50 [2]: 65.9 µM; anti-HCV activity (in words) ([3]; HCV replicon): modest anti-HCV activity; EC50 ([3]; HCV replicon, 96 h): 7 µM; EC90 ([3]; HCV replicon, 96 h): 24.9 µM; EC50 [4]: > 100 µM; EC90 ([4]; read-out: Anti-HIV-1 EC90): > 100 µM; toxicity to HepG2 cells (in words) [5]: toxicity to HepG2 cells; IC50 [6]: 40.9 µM; anti-HBV activity (in words) [7]: weak anti-HBV activity; IC50 [8]: > 100 µM
4-amino-7-iodo-1-(2-deoxy-2-fluoro-2-C-methyl-β-D-ribofuranosyl)-1H-pyrrolo[2,3-d]pyrimidine [Compound 5e] | – | – | – | – | – | toxicity (in words) [1]: toxicity; IC50 [2]: 21.4 µM; anti-HCV activity (in words) ([3]; HCV replicon): modest anti-HCV activity; EC50 ([3]; HCV replicon, 96 h): 1.1 µM; EC90 ([3]; HCV replicon, 96 h): > 33 µM; EC50 [4]: 94 µM; EC90 ([4]; read-out: Anti-HIV-1 EC90): > 100 µM; IC50 [6]: 24 µM; IC50 [8]: 53.2 µM
C[C@@]1(F)[C@H](O)[C@@H](CO)O[C@@H]1n1ccc2c(N)ncnc21 [Compound 4a] | > 10 µM | > 100 µM | > 100 µM | > 100 µM | > 10 µM | –
C[C@@]1(F)[C@H](O)[C@@H](CO)O[C@@H]1n1cc(F)c2c(N)ncnc21 [Compound 4b] | > 10 µM | – | > 100 µM | > 100 µM | – | –
C[C@@]1(F)[C@H](O)[C@@H](CO)O[C@@H]1n1cc(Cl)c2c(N)ncnc21 [Compound 4c] | > 10 µM | – | – | – | > 10 µM | –
C[C@@]1(F)[C@H](O)[C@@H](CO)O[C@@H]1n1cc(Br)c2c(N)ncnc21 [Compound 4d] | > 10 µM | – | – | > 100 µM | – | –
C[C@@]1(F)[C@H](O)[C@@H](CO)O[C@@H]1n1ccc2c(N)nc(N)nc21 [Compound 4f] | > 10 µM | > 100 µM | > 100 µM | – | > 10 µM | –
C[C@@]1(F)[C@H](O)[C@@H](CO)O[C@@H]1n1cc(I)c2c(N)nc(N)nc21 [Compound 4g] | > 10 µM | – | – | – | > 10 µM | –
CNc1ncnc2c1c(F)cn2[C@H]1O[C@H](CO)[C@@H](O)[C@@]1(C)F [Compound 4h] | > 10 µM | > 100 µM | > 100 µM | > 100 µM | > 10 µM | –
COc1ncnc2c1ccn2[C@H]1O[C@H](CO)[C@@H](O)[C@@]1(C)F [Compound 4i] | > 10 µM | > 100 µM | > 100 µM | – | – | –
C[C@@]1(F)[C@H](O)[C@@H](CO)O[C@H]1n1ccc2c(N)ncnc21 [Compound 5a] | – | > 100 µM | > 100 µM | – | – | –
C[C@@]1(F)[C@H](O)[C@@H](CO)O[C@H]1n1cc(F)c2c(N)ncnc21 [Compound 5b] | – | – | > 100 µM | – | > 10 µM | –
C[C@@]1(F)[C@H](O)[C@@H](CO)O[C@H]1n1cc(Cl)c2c(N)ncnc21 [Compound 5c] | – | – | – | > 100 µM | – | –
C[C@@]1(F)[C@H](O)[C@@H](CO)O[C@H]1n1ccc2c(N)nc(N)nc21 [Compound 5f] | – | > 100 µM | > 100 µM | > 100 µM | – | deamination to 7-deazaguanosine nucleoside or nucleoside phosphate [12]: no deamination had occurred; nucleoside triphosphate found intracellularly [12]: only a trace amount of nucleoside triphosphate was found
C[C@@]1(F)[C@H](O)[C@@H](CO)O[C@H]1n1cc(I)c2c(N)nc(N)nc21 [Compound 5g] | – | – | – | > 100 µM | – | –
CNc1ncnc2c1c(F)cn2[C@@H]1O[C@H](CO)[C@@H](O)[C@@]1(C)F [Compound 5h] | – | > 100 µM | > 100 µM | – | – | –
COc1ncnc2c1ccn2[C@@H]1O[C@H](CO)[C@@H](O)[C@@]1(C)F [Compound 5i] | – | > 100 µM | > 100 µM | – | > 10 µM | –
C=Cc1cn([C@H]2O[C@H](CO)[C@@H](O)[C@@]2(C)F)c2ncnc(N)c12 [Compound 6] | – | – | – | – | – | toxicity (in words) [1]: strong toxicity across all cell lines; anti-HCV activity (in words) ([3]; HCV replicon): moderate anti-HCV activity; anti-HIV-1 activity (in words) [4]: anti-HIV-1 activity
C=Cc1cn([C@@H]2O[C@H](CO)[C@@H](O)[C@@]2(C)F)c2ncnc(N)c12 [Compound 7] | – | – | – | – | – | toxicity (in words) [1]: exhibited toxicity in the ribosomal RNA assay and in three independent cell lines; anti-HIV-1 activity (in words) [4]: anti-HIV-1 activity
CCc1cn([C@H]2O[C@H](CO)[C@@H](O)[C@@]2(C)F)c2ncnc(N)c12 [Compound 8] | – | > 100 µM | – | > 100 µM | – | –
CCc1cn([C@@H]2O[C@H](CO)[C@@H](O)[C@@]2(C)F)c2ncnc(N)c12 [Compound 9] | > 10 µM | > 100 µM | – | – | > 10 µM | –
COC(=O)/C=C/c1cn([C@H]2O[C@H](CO)[C@@H](O)[C@@]2(C)F)c2ncnc(N)c12 [Compound 10] | > 10 µM | > 100 µM | > 100 µM | – | – | concentration up to which no cytotoxicity was observed ([1]; four different cell lines): > 100 µM; anti-HIV-1 activity (in words) [4]: strong anti-HIV-1 activity; anti-HBV activity (in words) [7]: no anti-HBV activity
COC(=O)/C=C/c1cn([C@@H]2O[C@H](CO)[C@@H](O)[C@@]2(C)F)c2ncnc(N)c12 [Compound 11] | – | > 100 µM | > 100 µM | – | > 10 µM | –
C#Cc1cn([C@H]2O[C@H](CO)[C@@H](O)[C@@]2(C)F)c2ncnc(N)c12 [Compound 12] | – | > 100 µM | – | > 100 µM | – | –
C#Cc1cn([C@@H]2O[C@H](CO)[C@@H](O)[C@@]2(C)F)c2ncnc(N)c12 [Compound 13] | > 10 µM | > 100 µM | – | – | > 10 µM | –
C#Cc1cn([C@H]2O[C@H](CO)[C@@H](O)[C@@]2(C)F)c2nc(N)nc(N)c12 [Compound 14] | – | – | – | – | – | anti-HIV-1 activity (in words) [4]: anti-HIV-1 activity; anti-HBV activity (in words) [7]: no anti-HBV activity
C#Cc1cn([C@@H]2O[C@H](CO)[C@@H](O)[C@@]2(C)F)c2nc(N)nc(N)c12 [Compound 15] | > 10 µM | – | – | – | > 10 µM | –
C[C@@]1(F)[C@H](O)[C@@H](CO)O[C@@H]1n1cc(C#Cc2ccccc2)c2c(N)ncnc21 [Compound 16] | – | – | – | – | – | anti-HIV-1 activity (in words) [4]: anti-HIV-1 activity; anti-HBV activity (in words) [7]: no anti-HBV activity
C[C@@]1(F)[C@H](O)[C@@H](CO)O[C@H]1n1cc(C#Cc2ccccc2)c2c(N)ncnc21 [Compound 17] | > 10 µM | – | – | – | – | anti-HIV-1 activity (in words) [4]: anti-HIV-1 activity; toxicity to HepG2 cells (in words) [5]: toxicity to HepG2 cells; anti-HBV activity (in words) [7]: weak anti-HBV activity
CCOC(=O)[C@H](C)NP(=O)(OC[C@H]1O[C@@H](n2ccc3c(N)nc(N)nc32)[C@](C)(F)[C@@H]1O)Oc1ccccc1 (some centres unmarked) [Compound 20] | – | – | – | – | – | deamination to 7-deazaguanosine nucleoside or nucleoside phosphate [12]: no deamination had occurred; nucleoside triphosphate found intracellularly [12]: only a trace amount of nucleoside triphosphate was found
